Results taken from PMC9078821, “The synthesis of axially disubstituted silicon phthalocyanines, their quaternized derivatives and first inhibitory effect on human cytosolic carbonic anhydrase isozymes hCA I and II” (RSC Advances, 2018).

Assays:
hCA I = biological target: T1, hCA I (Homo sapiens, UniProt P00915); assay: Esterase activity assay with 4-nitrophenylacetate as substrate, hCA I; format: biochemical; conditions: for IC50: 4-nitrophenylacetate substrate, pH 7.4, 25 °C, enzyme purified from human erythrocytes, errors 2–5%, three assays; for hCA I inhibition, result in words: ranking within the series
T1 construct: from tissue; host or cells: human erythrocytes (fresh human blood)
T1 sequence (P00915 whole entry): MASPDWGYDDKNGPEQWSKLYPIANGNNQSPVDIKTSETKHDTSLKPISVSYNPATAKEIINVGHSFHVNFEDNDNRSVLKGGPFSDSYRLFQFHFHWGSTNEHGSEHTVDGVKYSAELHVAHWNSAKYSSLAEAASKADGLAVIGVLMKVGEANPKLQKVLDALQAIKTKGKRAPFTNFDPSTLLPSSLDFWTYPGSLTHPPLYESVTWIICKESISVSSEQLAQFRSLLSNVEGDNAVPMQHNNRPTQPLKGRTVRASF
Description: (§1) Erythrocytes were purified from fresh human blood obtained from the Blood Centre of the Research Hospital at Atatürk University. The blood samples were centrifuged at 1500 rpm for 15 min and the plasma and buffy coat were removed. The red cells were isolated and washed twice with 0.9% NaCl, and hemolyzed with 1.5 volumes of ice-cold water. The ghost and intact cells were removed by centrifugation at 20 000 rpm for 30 min at 4 °C. The pH of the hemolysate was adjusted to 8.7 with solid Tris.[27] […] The affinity gel was washed with 25 mM Tris–HCl/22 mM Na2SO4 (pH 8.7). The human carbonic anhydrase (hCA I and hCA II) isozymes were eluted with 1 M NaCl/25 mM Na2HPO4 (pH 6.3) and 0.1 M CH3COONa/0.5 M NaClO4 (pH 5.6), respectively. All procedures were performed at 4 °C.[27]
(§2) Carbonic anhydrase activity was assayed by following the change in absorbance at 348 nm of 4-nitrophenylacetate (NPA) to 4-nitrophenylate ion over a period of 3 min at 25 °C using a spectrophotometer (Shimadzu UV-1800) according to the method described by Verpoorte et al.[28] The enzymatic reaction, in a total volume of 3.0 mL, contained 1.4 mL 0.05 M Tris–SO4 buffer (pH 7.4), 1 mL 3 mM 4-nitrophenylacetate, 0.5 mL H2O and 0.1 mL enzyme solution. A reference measurement was obtained by preparing the same cuvette without enzyme solution. The inhibitory effects of compounds were examined. All compounds were tested in triplicate at each concentration used. Different inhibitor concentrations were used. Control cuvette activity in the absence of inhibitor was taken as 100%. For each inhibitor an activity (%)–[inhibitor] graphs were drawn.[29]

hCA II = biological target: T2, hCA II (Homo sapiens, UniProt P00918); assay: Esterase activity assay with 4-nitrophenylacetate as substrate, hCA II; format: biochemical; conditions: 4-nitrophenylacetate substrate, pH 7.4, 25 °C, enzyme purified from human erythrocytes, errors 2–5%, three assays
T2 construct: from tissue; host or cells: human erythrocytes (fresh human blood)
Description: as §1, §2

Compound	IC50 (hCA I) [µM]	IC50 (hCA II) [µM]	hCA I inhibition, result in words (hCA I)
C[N+]1(CCOc2cc(CO[Si]3(OCc4cc(OCC[N+]5(C)CCOCC5)cc(OCC[N+]5(C)CCOCC5)c4)n4c5c6ccccc6c4N=C4N=C(N=c6c7ccccc7c(n63)=NC3=NC(=N5)c5ccccc53)c3ccccc34)cc(OCC[N+]3(C)CCOCC3)c2)CCOCC1 [ZM-1-SiQ]	0.071	0.0544	–
c1ccc2c(c1)C1=NC2=Nc2c3ccccc3c3n2[Si](OCc2cc(OCCN4CCOCC4)cc(OCCN4CCOCC4)c2)(OCc2cc(OCCN4CCOCC4)cc(OCCN4CCOCC4)c2)n2c(c4ccccc4c2=NC2=NC(=N3)c3ccccc32)=N1 [ZM-1-Si]	0.165	0.121	moderately inhibited
CCN(CC)c1cccc(OCCOCCO[Si]2(OCCOCCOc3cccc(N(CC)CC)c3)n3c4c5ccccc5c3N=C3N=C(N=c5c6ccccc6c(n52)=NC2=NC(=N4)c4ccccc42)c2ccccc23)c1 [ZM-5-Si]	0.084	0.0762	–
CC[N+](C)(CC)c1cccc(OCCOCCO[Si]2(OCCOCCOc3cccc([N+](C)(CC)CC)c3)n3c4c5ccccc5c3N=C3N=C(N=c5c6ccccc6c(n52)=NC2=NC(=N4)c4ccccc42)c2ccccc23)c1 [ZM-5-SiQ]	0.0243	0.0363	–
CN(C)c1ccc(/C=C/C(=O)c2ccc(O[Si]3(Oc4ccc(C(=O)/C=C/c5ccc(N(C)C)cc5)cc4)n4c5c6ccccc6c4N=C4N=C(N=c6c7ccccc7c(n63)=NC3=NC(=N5)c5ccccc53)c3ccccc34)cc2)cc1 [ZT-Si, Bis[(2E)-3-[4-(dimethylamino)phenyl]-1-(4-phenoxy)prop-2-en-1-one]phthalocyaninato silicon(IV)]	0.0178	0.0172	among the best inhibitors
